Test results reported in PMC10759932 (Nature cell biology, 2023).

Experiments:
S. pombe Hem25p = S. pombe Hem25p (Schizosaccharomyces pombe, UniProt Q9P6N6); settings: whole E. coli cells; labelled compound
PcaK = molecular target: T1, PcaK (Pseudomonas putida, UniProt Q51955); assay: radiolabelled uptake into E. coli cells; type: cell-based; settings: 50 μM 4-HB; whole E. coli cells; labelled compound
T1 sequence (Q51955 1-448): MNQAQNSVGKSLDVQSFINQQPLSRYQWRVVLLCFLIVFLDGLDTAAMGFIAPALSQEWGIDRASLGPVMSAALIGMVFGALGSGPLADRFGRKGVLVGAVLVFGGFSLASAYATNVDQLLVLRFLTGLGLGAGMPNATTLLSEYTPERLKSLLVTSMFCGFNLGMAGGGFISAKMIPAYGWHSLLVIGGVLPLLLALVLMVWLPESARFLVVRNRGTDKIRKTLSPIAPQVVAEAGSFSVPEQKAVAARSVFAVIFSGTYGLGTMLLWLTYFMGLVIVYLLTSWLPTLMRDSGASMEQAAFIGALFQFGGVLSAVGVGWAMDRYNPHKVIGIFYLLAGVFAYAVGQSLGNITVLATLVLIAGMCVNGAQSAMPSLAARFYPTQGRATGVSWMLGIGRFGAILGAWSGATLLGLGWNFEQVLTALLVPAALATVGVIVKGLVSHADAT

Sequence of S. pombe Hem25p (Q9P6N6 whole entry): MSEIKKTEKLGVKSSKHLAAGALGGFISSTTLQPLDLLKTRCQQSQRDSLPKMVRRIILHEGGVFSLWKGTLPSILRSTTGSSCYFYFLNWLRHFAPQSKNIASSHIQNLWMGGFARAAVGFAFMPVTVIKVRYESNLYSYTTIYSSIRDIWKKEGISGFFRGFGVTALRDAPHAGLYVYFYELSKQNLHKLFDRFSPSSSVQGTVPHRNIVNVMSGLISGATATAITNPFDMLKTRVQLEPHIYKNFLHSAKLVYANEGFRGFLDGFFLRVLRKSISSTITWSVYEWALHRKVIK

C=C(C)CCOP(=O)(O)OP(=O)(O)O [IPP]
radiolabelled uptake into E. coli cells (S. pombe Hem25p): Hem25p from S. pombe and S. cerevisiae

O=C(O)c1ccc(O)cc1 [4-HB]
radiolabelled uptake into E. coli cells (PcaK): Uptake of 4-HB was only seen when the known bacterial 4-HB transporter PcaK was expressed
